Experimental data taken from PubChem BioAssay AID651630 (Sanford-Burnham Center for Chemical Genomics, 2012).
pIC50: −log10 of the molar value. The source made the active and inactive calls.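 How the source made its calls: active means lipid-stain IC50 at or below a set limit, with nuclear-stain toxicity IC50 at least five times higher; inactive means the rest.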

Tests used:
[1] = system: DAPI; assay: triacylglycerol accumulation inhibitor potency, dose response, cell-based, panel, Nile Red and DAPI fluorescence, H9c2 (AID 651630); conditions: H9c2 cells, DAPI nuclear fluorescence (cytotoxicity counter-readout), oleic acid;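 further: cells exposed to compound overnight before fixation and staining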
[2] = system: TAG; assay: as above; conditions: H9c2 cells, Nile Red TAG fluorescence, oleic acid

Row | SMILES | IC50 cytotoxicity (DAPI nuclear signal decrease) ([1]; mean of runs) | IC50 cytotoxicity (DAPI nuclear signal decrease) ([1]; run 1) [µM] | IC50 cytotoxicity (DAPI nuclear signal decrease) ([1]; run 2) [µM] | pIC50 ([2]; mean of runs) | pIC50 ([2]; run 1) | pIC50 ([2]; run 2) | IC50 ([2]; mean of runs)
1 | N#C/C(=C\Nc1ccc2cn[nH]c2c1)c1nc(-c2ccc(Cl)cc2)cs1 | 17.8 µM (inactive) | 23.7 | 12 | 4.95 | 5.08 | 4.86 | 
2 | COc1cc(NC(=O)c2cc3cccc(OC)c3o2)cc(C(=O)Nc2cccc(C(F)(F)F)c2)c1 | > 25 µM (inactive) | > 25 | > 25 | 4.92 | 5.03 | 4.83 | 
3 | CN(C)CCNC(=O)c1cccc(-c2cnc3c(NC=O)cc(-c4cccc(C(F)(F)F)c4)cn23)c1 | > 25 µM (inactive) | > 25 | > 25 |  | < 4.60 | < 4.60 | > 25 µM (inactive)
4 | Cc1ccc(NC(=S)N(CCCN2CCCC2)Cc2cccn2Cc2ccc(Cl)cc2)cc1Cl |  | > 25 | 23.1 |  | < 4.60 | < 4.60 | > 25 µM (inactive)
5 | CSc1ccc(C2=C/C(=C3/SC(=S)NC3=O)c3ccccc3O2)cc1 | > 25 µM (inactive) | > 25 | > 25 | 4.84 | 4.93 | 4.76 | 
6 | Cc1ccc(Cn2c(C(C)Nc3nc(-c4ccc(Cl)c([N+](=O)[O-])c4)cs3)nc3cc(C(F)(F)F)ccc32)cc1 (stereo unspecified) |  | > 25 | 7.97 | 5.08 | 5.17 | 5.00 | 
7 | COc1cc2c(c(OC)c1OC)-c1ccc(O)cc1C(NC(C)=O)CC2 (stereo unspecified) | > 25 µM (inactive) | > 25 | > 25 |  | < 4.60 | < 4.60 | > 25 µM (inactive)
8 | CCOc1ccc(CCNC(=O)c2cc3sc(Cl)cc3n2C)cc1OCC | > 25 µM (inactive) | > 25 | > 25 | 5.24 | 5.11 | 5.42 | 
9 | C#CCN(C[C@@H]1[C@@H](OC(=O)NCC2CCCCC2)[C@@H](OC(=O)NCC2CCCCC2)CN(C(=O)OC(C)C)N1C(=O)OC(C)C)S(=O)(=O)c1ccc(C)cc1 | > 25 µM (inactive) | > 25 | > 25 | 4.97 | 5.00 | 4.95 | 
10 | COc1ccc(NC(=O)c2nc(C)c(C3(C)CC(c4ccccc4)=NO3)s2)cc1 (stereo unspecified) | > 25 µM (inactive) | > 25 | > 25 | 5.12 | 5.31 | 4.99 | 
11 | CCOc1ccc2nc(NC(=O)CN3CCC(n4nnc5cc(F)ccc54)CC3)sc2c1 | > 25 µM (inactive) | > 25 | > 25 |  | 4.75 | 4.61 | 21.3 µM (inactive)
12 | CCC(C)(C)NC(=O)C(c1ccc(OC)cc1)N(Cc1ccco1)C(=O)CCC(=O)Nc1cc(C)on1 (stereo unspecified) | > 25 µM (inactive) | > 25 | > 25 |  | 4.68 | 4.83 | 17.9 µM (inactive)
13 | Cn1c(N)c(C(=O)COC(=O)c2ccc([N+](=O)[O-])o2)c(=O)n(C)c1=O | 19.1 µM (inactive) | 18.4 | 19.8 | 5.00 | 5.05 | 4.95 | 
14 | O=C(Nc1nc2ccc(C(=O)N3CCCCC3)cc2s1)C1CCCCC1 | > 25 µM (inactive) | > 25 | > 25 |  | 4.97 | 4.69 | 15.4 µM (inactive)
15 | O=C(N/N=C/c1cn(-c2ccccc2)nc1-c1cc2ccccc2o1)c1c[nH]c2ccccc12 | > 25 µM (inactive) | > 25 | > 25 | 4.88 | 4.83 | 4.94 | 
16 | C=CCC[C@@H](Cc1ccc(F)cc1)C(=O)OC[C@@H](Cc1c[nH]c2ccccc12)NC(=O)[C@@H](CC=C)CC(=O)N(CCO)Cc1ccccc1 | > 25 µM (inactive) | > 25 | > 25 | 5.08 | 5.15 | 5.03 | 
17 | Oc1ccc(C[C@H]2CNC(=S)N2CC2CCCN2C[C@H](Cc2ccc(O)cc2)N2C[C@H](Cc3ccc(O)cc3)N(CC3CCCCCC3)C2=S)cc1 (stereo partly specified) | > 25 µM (inactive) | > 25 | > 25 | 5.07 | 5.14 | 5.00 | 

Row | SMILES | IC50 cytotoxicity (DAPI nuclear signal decrease) ([1]; mean of runs) | IC50 cytotoxicity (DAPI nuclear signal decrease) ([1]; run 1) [µM] | IC50 cytotoxicity (DAPI nuclear signal decrease) ([1]; run 2) [µM] | pIC50 ([2]; mean of runs) | pIC50 ([2]; run 1) | pIC50 ([2]; run 2) | IC50 ([2]; mean of runs)
18 | Cc1cc(NC(=O)c2cc(-c3ccncc3)nc3c(C)cccc23)no1 | > 25 µM (inactive) | > 25 | > 25 | 4.94 | 4.98 | 4.90 | 
19 | COc1ccccc1N1CCN(CC(=O)Nc2cc(C)nn2-c2nc(C)cc(C)n2)CC1 | > 25 µM (inactive) | > 25 | > 25 |  | 4.71 | 4.74 | 18.9 µM (inactive)
20 | CCC(C)NCCOCCOc1ccc(Cl)c2ccccc12 (stereo unspecified) | > 25 µM (inactive) | > 25 | > 25 |  | < 4.60 | 4.75 | 
21 | N=c1n(CCO)c2ccccc2n1CCOc1ccc(Cl)cc1Cl | 22.3 µM (inactive) | 21.4 | 23.1 |  | < 4.60 | < 4.60 | > 25 µM (inactive)
22 | Cc1onc(-c2ccc(Cl)cc2Cl)c1-c1csc(N/N=C/c2ccccc2)n1 | > 25 µM (inactive) | > 25 | > 25 |  | < 4.60 | < 4.60 | > 25 µM (inactive)
23 | Nc1ccccc1Nc1cccc(C(F)(F)F)c1 | > 25 µM (inactive) | > 25 | > 25 | 4.95 | 5.02 | 4.89 | 
24 | CCCC[C@H](CN[C@@H](CNC)[C@H](C)CC)NCCC12CCC(CC1)C2 |  | 17.8 | > 25 |  | < 4.60 | < 4.60 | > 25 µM (inactive)
25 | COCCOC(=O)c1[nH]c2c(c1C)C(=O)CC(c1ccccc1)C2 (stereo unspecified) | > 25 µM (inactive) | > 25 | > 25 |  | < 4.60 | < 4.60 | > 25 µM (inactive)
26 | CCCCCC(=C/c1ccccc1)/C=N/Nc1ccc(S(=O)(=O)N2CCOCC2)cc1[N+](=O)[O-] |  | > 25 | > 25 | 5.54 | 5.71 | 5.42 | 
27 | COc1cc(C#Cc2c(-c3cncn3C)n(C)c3ccc(-c4ccc5cc[nH]c5c4)cc23)cc(OC)c1 | > 25 µM (inactive) | > 25 | > 25 | 4.93 | 4.92 | 4.95 | 
28 | COc1cc2ccccc2cc1C(=O)N/N=C/c1cccs1 | > 25 µM (inactive) | > 25 | > 25 |  | < 4.60 | < 4.60 | > 25 µM (inactive)
29 | COc1cc(-c2cc3nc(NCCOc4ccccc4)ccn3n2)cc(OC)c1OC | > 25 µM (inactive) | > 25 | > 25 |  | 4.78 | 4.67 | 18.9 µM (inactive)
30 | Cc1ccc(CN(C)C(=O)CN2C(=O)NC3(CCCc4ccccc43)C2=O)c(C)c1 (stereo unspecified) | > 25 µM (inactive) | > 25 | > 25 |  | 4.66 | < 4.60 | 
31 | CN(C)CCCN1c2ccccc2Sc2ccc3ccccc3c21 | > 25 µM (inactive) | > 25 | > 25 |  | < 4.60 | < 4.60 | > 25 µM (inactive)
32 | Cc1nn2c(N3CCN(C)CC3)c3c(nc2c1-c1ccccc1)CCCC3 | > 25 µM (inactive) | > 25 | > 25 |  | < 4.60 | < 4.60 | > 25 µM (inactive)
33 | COc1ccccc1C1C2=C(COC2=O)Nc2cc3c(cc21)OCO3 (stereo unspecified) | > 25 µM (inactive) | > 25 | > 25 |  | > 6.11 | < 4.60 | 
